Test results reported in patent US11155517B2, “4-substituted phenylamine derivatives and their use to protect crops by fighting undesired phytopathogenic micoorganisms” (PI INDUSTRIES LTD., priority 2016, dated 2021).

Key:
Rhizoctonia solani = Rhizoctonia solani (rice sheath blight/potato black scurf) in vitro test, radial growth on Potato Dextrose Agar; type: cell-based; details: for inhibition of growth at 300 ppm: 168 h, seven days, 25° C., read-out: % control compared to the untreated check (radial growth); for inhibition at 300 ppm: Table 3 comparison, read-out: RHIZSO % inhibition
Colletotrichum capsici = Colletotrichum capsici (anthracnose) in vitro test, radial growth on Potato Dextrose Agar; type: cell-based; details: Colletotrichum truncatum; for inhibition of growth at 300 ppm: 168 h, seven days, 25° C., read-out: % control compared to the untreated check (radial growth); for inhibition at 300 ppm: Table 3 comparison, read-out: COLLCA % inhibition
Botrytis cinerea = Botrytis cinerea (gray mold) in vitro test, radial growth on Potato Dextrose Agar; type: cell-based; details: for inhibition of growth at 300 ppm: 168 h, seven days, 22° C., read-out: % (control) compared to the untreated check (radial growth); for inhibition at 300 ppm: Table 3 comparison, read-out: BOTRCI % inhibition
Alternaria solani [1] = experiment: Alternaria solani (early blight of tomato/potato) in vitro test, radial growth on Potato Dextrose Agar; type: cell-based; details: for inhibition of growth at 300 ppm: 168 h, seven days, 25° C., read-out: % control compared to the untreated check (radial growth); for inhibition at 300 ppm: Table 3 comparison, read-out: ALTESO % inhibition
Septoria lycopersici = Septoria lycopersici (leaf spot of tomato) in vitro test, radial growth on Potato Dextrose Agar; type: cell-based; details: 168 h, seven days, 25° C., read-out: % control compared to the untreated check (radial growth)
Fusarium culmorum [2] = experiment: Fusarium culmorum (foot rot of cereals) in vitro test, radial growth on Potato Dextrose Agar; type: cell-based; details: Fusarium culmorum; for inhibition of growth at 300 ppm: 168 h, read-out: % control compared to the untreated check (radial growth); for inhibition at 300 ppm: Table 3 comparison, read-out: FUSACU % inhibition
Alternaria solani [3] = experiment: Greenhouse Alternaria solani test in tomato, preventive; type: in vivo; details: 24 h, tomato plants sprayed one day before inoculation, read-out: Efficacy (% control), disease severity vs untreated check
Protocol: Compounds were dissolved in 2% DMSO/Acetone & then mixed with water to calibrated spray volume of 50 ml. This 50 ml spray solution was poured into the spray bottles for further applications. To test the preventive activity of compounds, healthy young Tomato plants raised in the greenhouse were sprayed with active compound preparation at the stated application rates inside the spray cabinets using hallowcone nozzles. One day after treatment, the plants were inoculated with spore suspension (2% Malt) containing 0.24×10^6 Alternaria solani inoculum. The inoculated plants were then kept in greenhouse chamber at 22-24° C. temperature and 90-95% relative humidity for disease expression. […] Efficacy (% control) of the compounds was calculated by comparing the disease rating in the treatment with untreated control. The sprayed plants were also assessed for compound's phytotoxic effects by recording symptoms like necrosis, chlorosis and stunting.

Pyricularia oryzae [4] = experiment: whole plant or invertebrate; type: in vivo; details: 24 h, read-out: Efficacy (% control), disease severity vs untreated check
Pyricularia oryzae [5] = experiment: microbe, parasite or virus in culture; type: cell-based; details: for inhibition of growth at 300 ppm: 168 h, read-out: % control compared to the untreated check (radial growth); for inhibition at 300 ppm: read-out: PYRIOR % inhibition
Fusarium culmorum [6] = experiment: Greenhouse Fusarium culmorum test in wheat, preventive; type: in vivo; details: 24 h, read-out: Efficacy (% control), disease severity vs untreated check
Summary of the method: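 Young greenhouse wheat sprayed preventively at stated rates (compounds in 2% DMSO/acetone, diluted in water), inoculated one day later with 2×10^6 Fusarium culmorum spores in 2% malt, held at 24 °C, 80-90% RH. Disease severity (0-100%) rated 3, 7, 10 and 15 days after application; % control versus untreated, phytotoxicity also recorded.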

Corynespora cassicola = experiment: Table 3 comparative % inhibition, Corynespora cassicola (CORYCA); type: cell-based; details: Table 3 comparison
Botrytis cinera = experiment: Greenhouse Botrytis cinera test in tomato, preventive; type: in vivo; details: 24 h, plants sprayed one day before inoculation, read-out: Efficacy (% control), disease severity vs untreated check

Row | SMILES | inhibition of growth at 300 ppm (Rhizoctonia solani) [%] | inhibition of growth at 300 ppm (Colletotrichum capsici) [%] | inhibition of growth at 300 ppm (Botrytis cinerea) [%] | inhibition of growth at 300 ppm (Alternaria solani [1]) [%] | inhibition of growth at 300 ppm (Septoria lycopersici) [%] | inhibition of growth at 300 ppm (Fusarium culmorum [2]) [%] | pest or weed control at 500 ppm (Alternaria solani [3]) [%] | pest or weed control at 500 ppm (Pyricularia oryzae [4]) [%] | inhibition of growth at 300 ppm (Pyricularia oryzae [5]) [%] | pest or weed control at 500 ppm (Fusarium culmorum [6]) [%] | inhibition at 300 ppm (Rhizoctonia solani) [%] | inhibition at 300 ppm (Colletotrichum capsici) [%] | inhibition at 300 ppm (Botrytis cinerea) [%] | inhibition at 300 ppm (Alternaria solani [1]) [%] | inhibition at 300 ppm (Corynespora cassicola) [%] | inhibition at 300 ppm (Fusarium culmorum [2]) [%] | inhibition at 300 ppm (Pyricularia oryzae [5]) [%] | pest or weed control at 500 ppm (Botrytis cinera) [%]
1 | CCN(C)C=Nc1cc(C)c(Cc2ccc(C#N)cc2)cc1C [Compound 48, N′-(4-(4-cyanobenzyl)-2,5-dimethylphenyl)-N-ethyl-N-methylformimidamide] | > 80 | > 80 | > 80 | > 75 | > 70 | 75 | 70 to 100 | 70 to 100 | > 75 | – | – | – | – | – | – | – | – | –
2 | CCN(C)C=Nc1cc(C)c(Cc2cc(C(F)(F)F)cc(C(F)(F)F)c2)cc1Cl [Compound 96, N′-(4-(3,5-bis(trifluoromethyl)benzyl)-2-chloro-5-methylphenyl)-N-ethyl-N-methylformimidamide] | – | – | – | > 75 | – | – | – | 70 to 100 | – | 70 to 100 | – | – | – | – | – | – | – | –
3 | Cc1cc(C(C#N)c2cccc(C(F)(F)F)c2)c(C)cc1N=CN(C)C (stereo not drawn) [N′-(4-(cyano(3-(trifluoromethyl)phenyl)methyl)-2,5-dimethylphenyl)-N,N-dimethylformimidamide, reference compound] | – | – | – | – | – | – | – | – | – | – | 80.9 | 41.3 | 77.3 | 79.8 | 58.7 | 0 | 100 | –
4 | CCN(C)C=Nc1cc(C)c(Cc2ccc(C(F)(F)F)cc2)cc1C [Compound 94, N′-(2,5-dimethyl-4-(4-(trifluoromethyl)benzyl)phenyl)-N-ethyl-N-methylformimidamide] | > 80 | > 80 | > 80 | > 75 | > 70 | 75 | – | 70 to 100 | > 75 | – | – | – | – | – | – | – | – | 70 to 100
5 | CCN(C)C=Nc1cc(C)c(Cc2cccc(Cl)c2Cl)cc1C [Compound 133, N′-(4-(2,3-dichlorobenzyl)-2,5-dimethylphenyl)-N-ethyl-N-methylformimidamide] | > 80 | > 80 | > 80 | > 75 | > 70 | – | – | 70 to 100 | > 75 | – | – | – | – | – | – | – | – | 70 to 100
6 | CCN(C)C=Nc1cc(C)c(C(C#N)c2cccc(C(F)(F)F)c2)cc1C (stereo not drawn) [N′-(4-(cyano(3-(trifluoromethyl)phenyl)methyl)-2,5-dimethylphenyl)-N-ethyl-N-methylformimidamide] | – | – | – | – | – | – | – | – | – | – | 100 | 100 | 100 | 100 | 64.4 | 0 | 100 | –
7 | CCN(C)C=Nc1cc(Cl)c(Cc2ccccc2F)cc1Cl [Compound 149, N′-(2,5-dichloro-4-(2-fluorobenzyl)phenyl)-N-ethyl-N-methylformimidamide] | – | – | > 80 | > 75 | – | – | – | 70 to 100 | > 75 | 70 to 100 | – | – | – | – | – | – | – | –
8 | CCN(C)C=Nc1cc(C)c(Cc2ccccc2C(F)(F)F)cc1Cl [Compound 103, N′-(2-chloro-5-methyl-4-(2-(trifluoromethyl)benzyl)phenyl)-N-ethyl-N-methylformimidamide] | > 80 | > 80 | > 80 | > 75 | – | – | – | 70 to 100 | > 75 | – | – | – | – | – | – | – | – | 70 to 100
9 | CCN(C)C=Nc1cc(Cl)c(Cc2cccc(C(F)(F)F)c2)cc1Cl [Compound 183, N′-(2,5-dichloro-4-(3-(trifluoromethyl)benzyl)phenyl)-N-ethyl-N-methylformimidamide] | > 80 | – | > 80 | – | – | – | – | 70 to 100 | > 75 | 70 to 100 | – | – | – | – | – | – | – | –
10 | CCN(C)C=Nc1cc(C)c(Cc2cc(C)ccc2C)cc1C [Compound 26, N′-(4-(2,5-dimethylbenzyl)-2,5-dimethylphenyl)-N-ethyl-N-methylformimidamide] | > 80 | > 80 | > 80 | > 75 | > 70 | 75 | – | 70 to 100 | > 75 | – | – | – | – | – | – | – | – | –
11 | CCN(C)C=Nc1cc(C)c(Cc2cccc(OC(F)(F)F)c2)cc1C [Compound 51, N′-(2,5-dimethyl-4-(3-(trifluoromethoxy)benzyl)phenyl)-N-ethyl-N-methylformimidamide] | > 80 | > 80 | > 80 | > 75 | > 70 | 75 | – | 70 to 100 | > 75 | – | – | – | – | – | – | – | – | –
12 | Cc1cc(N=CN2CCOCC2)c(C)cc1Cc1ccccc1Cl [Compound 63, N-(4-(2-chlorobenzyl)-2,5-dimethylphenyl)-1-morpholinomethanimine] | > 80 | > 80 | > 80 | > 75 | > 70 | 75 | – | 70 to 100 | > 75 | – | – | – | – | – | – | – | – | –
13 | CCN(C)C=Nc1cc(C)c(Cc2ccc(F)cc2Cl)cc1C [Compound 110, N′-(4-(2-chloro-4-fluorobenzyl)-2,5-dimethylphenyl)-N-ethyl-N-methylformimidamide] | > 80 | > 80 | > 80 | > 75 | > 70 | 75 | – | 70 to 100 | > 75 | – | – | – | – | – | – | – | – | –
14 | CCN(C)C=Nc1cc(C)c(Cc2ccc(C)cc2)cc1Cl [Compound 44, N′-(2-chloro-5-methyl-4-(4-methylbenzyl)phenyl)-N-ethyl-N-methylformimidamide] | > 80 | > 80 | > 80 | > 75 | > 70 | 75 | – | 70 to 100 | > 75 | – | – | – | – | – | – | – | – | –
15 | CCN(C)C=Nc1cc(C)c(Cc2ccccc2C(F)(F)F)cc1C [Compound 93, N′-(2,5-dimethyl-4-(2-(trifluoromethyl)benzyl)phenyl)-N-ethyl-N-methylformimidamide] | > 80 | > 80 | > 80 | > 75 | > 70 | 75 | – | 70 to 100 | > 75 | – | – | – | – | – | – | – | – | –
